From patent US8623832B2, “Peptide compositions that bind TLR-4” (The Board of Regents of the University of Oklahoma, priority 2011, dated 2014)

Key:
JAWS II dendritic cells = experiment: LPS-induced TNF-α release by JAWS II dendritic cells (ELISA); assay type: cell-based, mouse; details: for LPS-induced TNF-α secretion, pre-LPS model: peptide 1 or 10 μM 1 hour prior to LPS 75 ng/ml, total 5 hours; for LPS-induced TNF-α, mean values: post-LPS model
Experimental: JAWS II dendritic cell culture: The JAWS II dendritic cell line is an immortalized cell line derived from bone marrow of C57BL/6 mice (ATCC, Manassas, Va.). The cells were maintained in Alpha-modified minimum essential medium (Sigma, St Louis, Mo.) supplemented with 20% fetal bovine serum (FBS), 4 mM L-glutamine, 100 U/ml penicillin, 100 μg/ml streptomycin, 50 μg/ml gentamicin (Invitrogen, Grand Island, N.Y.) and 5 ng/ml of recombinant murine granulocyte macrophage-colony stimulating factor (Peprotech, Rocky Hill, N.J.). (Awasthi et al., 2005). The culture medium was replaced with fresh medium every 48 h.
The JAWS II dendritic cells (1 million) were treated with SP-A peptides (1 or 10 μM) with or without E. coli derived LPS (75 ng/ml, highly purified, low protein, Calbiochem, CA). In order to observe the anti-inflammatory properties of the SP-A peptides, the cells were treated with peptides for 1 hour prior to addition of LPS (pre-LPS treatment) or after 4 hours incubation with LPS (Post-LPS treatment). The incubation was continued for a total period of 5 hours. Control cells were treated with vehicle, LPS (75 ng/ml), and/or SP-A peptides (1 and 10 μM) for a period of 5 hours. The cell-free supernatants were collected and stored at −80° C. for further analysis.
Cytokine (TNF-α) measurement: The TNF-α levels were measured in cell-free supernatants of JAWS II dendritic cells treated with LPS with or without SP-A peptides by enzyme linked immunosorbent assay (ELISA) as described earlier (Awasthi and Cox, 2003).

[1] = test system: primary adult baboon lung DCs and fetal baboon lung DC-precursor cells; experiment: Phagocytosis of pHrodo-labeled E. coli bioparticles by primary baboon lung DCs / fetal DC-precursor cells; assay type: cell-based; details: SP-A 2 μM, TLR4-MD2 0.3 μM
Experimental: Freshly collected lobe of the lung or whole lung samples of adult and fetal baboons were transported on ice in RPMI 1640 medium containing 2 mM glutamine, 1 mM HEPES, 10 μg/ml gentamicin, 100 U/ml penicillin, 100 μg/ml streptomycin and 10% FBS. After a mild mechanical disruption, the single cell suspension was seeded in a tissue culture flask (Nalge-Nunc International Corp, NY) at a density of 30-50×10^6 leukocytes/175 cm^2 flask in RPMI 1640 medium containing 2 mM glutamine, 1 mM HEPES, 10 μg/ml gentamicin, 100 U/ml penicillin, 100 μg/ml streptomycin and 10% FBS. The light-density DC-populations were harvested using OptiPrep cell-separation solution (density 1.32 g/ml, Accurate Chemicals, NY) (Awasthi and Cooper, 2006; Awasthi et al., 2009). The immunophenotype and basic characteristics of the lung DC-population isolated from fetal and adult baboons have been described earlier (Awasthi et al., 2009). Here, first the immunophenotype of KG-1-derived DCs and fetal baboon lung DC-precursors or adult baboon lung DCs were compared by flow cytometry. Briefly, cells were suspended in Dulbecco's phosphate buffered saline (DPBS) containing 1% FBS and 0.09% sodium azide and incubated with fluorochrome-conjugated antibodies to HLA-DP, DQ, DR, CD11c, CD40, CD80, CD86 (typical DC-markers) as described earlier.
(§1) After confirming that the fluorescence is of phagocytosed bioparticles, comprehensive experiments were performed in presence and absence of effector molecules (SP-A and TLR4-MD2 proteins). […] The fluorescence readings were taken at 550 nm excitation and 600 nm emission wavelengths using SpectraMax M2 spectrofluorometer (Molecular Devices, CA).
(§2) The phagocytosis index was calculated by subtracting the average fluorescence intensity of the reaction with bioparticles alone from the control (basal without any effector molecules) and experimental wells. Finally, the percent effect was calculated using the following formula: % effect=(Net experimental phagocytosis/Net basal phagocytosis)×100%

[2] = test system: primary adult baboon lung DCs and fetal baboon lung DC-precursor cells; experiment: TNF-α secretion against E. coli by baboon lung DCs (ELISA); assay type: cell-based; details: 3 hours phagocytosis reaction; protein added alone
Experimental: After confirming that the fluorescence is of phagocytosed bioparticles, comprehensive experiments were performed in presence and absence of effector molecules (SP-A and TLR4-MD2 proteins). The cells were pulsed with purified, native baboon lung SP-A and recombinant human TLR4-MD2 or MD2 proteins (RnD Systems, MN) for an hour prior to phagocytosis assay with pHrodo-conjugated, heat-killed E. coli K12 bioparticles (Invitrogen-Molecular Probes, CA). MD2 protein was also included, because SP-A is known to interact with MD2, and it was questioned if MD2 can influence the immune functions of DC-population. The assay was performed in serum-free Opti-MEM medium (Invitrogen, CA), as described by the manufacturer (Invitrogen-Molecular Probes, CA). The assay mixtures were incubated for another 3 hours at 37° C. in 5% CO2 incubator. The fluorescence readings were taken at 550 nm excitation and 600 nm emission wavelengths using SpectraMax M2 spectrofluorometer (Molecular Devices, CA).
Cytokine (TNF-α) measurement: The TNF-α levels were measured in cell-free supernatants by enzyme linked immunosorbent assay (ELISA) using a commercially available kit (eBioscience, CA), as per the manufacturer's instructions. Briefly, the microwells of a 96 well plate were coated with diluted purified anti-human TNF-α antibody. The wells were washed, and nonspecific sites were blocked. Diluted recombinant human TNF-α (7.8-500 pg/ml standard) and cell-free-supernatant (1:10) were added to the antibody-coated wells, and the plate was incubated overnight at 4° C. The next day, the plate was washed and incubated with biotin-conjugated anti-human TNF-α antibody followed by avidin-horseradish peroxidase and substrate solution. The reaction was stopped by adding 2 N H2SO4 and read at 450 nm (Molecular Devices, CA).

KG-1-derived DCs = experiment: Phagocytosis of pHrodo-labeled E. coli bioparticles by KG-1-derived DCs; assay type: cell-based, human; details: MD2 alone 0.02-0.2 μM
Excerpt: Phagocytosis assay: In this Example, pHrodo-conjugated, heat-killed E. coli K12 (encapsulated) bioparticles (Invitrogen-Molecular Probes, CA) were employed. The pHrodo-fluorescent label offers an advantage over other conventional methods, in that it fluoresces only in acidic conditions (i.e., after the bioparticles are taken inside the intracellular lysosomes) (Invitrogen-Molecular Probes, CA). To ensure that the fluorescence relates to phagocytosed pHrodo-conjugated E. coli bioparticles only, the phagocytosis reaction mix was imaged by confocal microscopy. […]
as §1, §2

SPA2: 20-mer synthetic peptide derived from the C-terminal Carbohydrate Recognition Domain of human SP-A (PAGRGKEQCVEMYTDGQWND; listed as Homo sapiens)
LPS-induced TNF-α secretion, pre-LPS model (JAWS II dendritic cells): slight increase

SPA3: 20-mer synthetic peptide derived from the C-terminal Carbohydrate Recognition Domain of human SP-A (VNYTNWYRGEPAGRGKEQCV; listed as Homo sapiens)
LPS-induced TNF-α secretion, pre-LPS model (JAWS II dendritic cells): slight increase

SPA5: 20-mer synthetic peptide from C-terminal CRD of human SP-A; contains the first 10 amino acids of the SPA4 peptide (YVGLTEGPSPGDFRYSDGTP; listed as Homo sapiens)
secretion of TNF-α, post-LPS model (JAWS II dendritic cells; peptide added after 4 hours LPS 75 ng/ml, both 1 and 10 μM): inhibited the secretion of TNF-α
LPS-induced TNF-α, mean values (JAWS II dendritic cells; 1 μM peptide): 8284 pg/mL
LPS-induced TNF-α, mean values (JAWS II dendritic cells; 10 μM peptide): 6319 pg/mL

SPA7: 20-mer synthetic peptide derived from the C-terminal Carbohydrate Recognition Domain of human SP-A (SLQGSIMTVGEKVFSSNGQS; listed as Homo sapiens)
LPS-induced TNF-α secretion, pre-LPS model (JAWS II dendritic cells): slight increase

TLR4-MD2: soluble mixture of recombinant human TLR4 extracellular domain and MD2 proteins (R&D Systems) [reference compound]
phagocytic uptake of E. coli [1]: increased
secretion of TNF-α by DCs in response to E. coli [2]: increased the TNF-α secretion significantly

B1: MD2: recombinant human MD-2 protein, adaptor molecule for TLR4 (R&D Systems) (protein, listed as Homo sapiens)
chain: MLPFLFFSTLFSSIFTEAQKQYWVCNSSDASISYTYCDKMQYPISINVNPCIELKGSKGLLHIFYIPRRDLKQLYFNLYITVNTMNLPKRKEVICRGSDDDYSFCRALKGETVNTTISFSFKGIKFSKGKYKCVVEAISGSPEEMLFCLEFVILHQPNSN
effect on phagocytosis of E. coli bioparticles (KG-1-derived DCs): did not affect the phagocytosis
